Data reported in US6593480B2 (Abbott Laboratories, priority 1999, dated 2003).

Experiments:
[1] = molecular target: T1, progesterone receptor (PR) (Homo sapiens, UniProt P06401); experiment: Radioligand binding assay with progesterone receptor cytosol (similar protocol)
T1 sequence (P06401 1-933): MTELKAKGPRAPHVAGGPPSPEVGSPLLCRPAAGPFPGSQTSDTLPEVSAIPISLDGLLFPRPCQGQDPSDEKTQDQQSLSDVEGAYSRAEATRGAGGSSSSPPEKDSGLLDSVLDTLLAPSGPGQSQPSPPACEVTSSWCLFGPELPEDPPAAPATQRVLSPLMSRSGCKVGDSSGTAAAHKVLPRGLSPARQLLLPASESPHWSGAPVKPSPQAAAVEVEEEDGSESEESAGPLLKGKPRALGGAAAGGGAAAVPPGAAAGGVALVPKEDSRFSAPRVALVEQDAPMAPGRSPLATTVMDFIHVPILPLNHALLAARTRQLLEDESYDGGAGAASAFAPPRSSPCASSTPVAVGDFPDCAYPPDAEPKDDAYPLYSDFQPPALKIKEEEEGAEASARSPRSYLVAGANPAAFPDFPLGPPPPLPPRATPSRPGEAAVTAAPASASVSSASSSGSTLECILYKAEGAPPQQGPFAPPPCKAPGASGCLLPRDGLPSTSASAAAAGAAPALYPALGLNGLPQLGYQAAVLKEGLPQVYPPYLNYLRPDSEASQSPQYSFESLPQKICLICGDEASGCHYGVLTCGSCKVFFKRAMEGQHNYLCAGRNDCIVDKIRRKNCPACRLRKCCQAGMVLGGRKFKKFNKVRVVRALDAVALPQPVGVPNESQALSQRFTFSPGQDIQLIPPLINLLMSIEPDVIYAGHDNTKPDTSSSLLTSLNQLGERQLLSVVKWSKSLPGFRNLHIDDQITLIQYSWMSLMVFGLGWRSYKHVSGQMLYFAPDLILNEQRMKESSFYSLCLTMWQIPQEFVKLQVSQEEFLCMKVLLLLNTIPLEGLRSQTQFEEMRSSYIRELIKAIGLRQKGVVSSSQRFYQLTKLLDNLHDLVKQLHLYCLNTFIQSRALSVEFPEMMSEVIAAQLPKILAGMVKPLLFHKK
Description: Methods for Radioligand Binding Studies with Human Glucocorticoid and Progesterone Receptor Cytosol
A similar protocol was employed to measure affinity of the compounds of the present invention for progesterone receptor (PR).

[2] = molecular target: T2, Human glucocorticoid receptors (Homo sapiens, UniProt P04150); experiment: Radioligand filter binding assay, displacement of 3(H)-dexamethasone from human glucocorticoid receptor cytosol; details: 1.7 μM test compound, inhibition of 3(H)-dex binding to hGR; for inhibition at 1.7 µM: read-out: GR BINDING (% Inhibition @ 1.7 μM)
T2 construct: made in house; host or cells: Sf9 insect cells, recombinant baculovirus (BAC-TO-BAC)
T2 sequence (P04150 1-777): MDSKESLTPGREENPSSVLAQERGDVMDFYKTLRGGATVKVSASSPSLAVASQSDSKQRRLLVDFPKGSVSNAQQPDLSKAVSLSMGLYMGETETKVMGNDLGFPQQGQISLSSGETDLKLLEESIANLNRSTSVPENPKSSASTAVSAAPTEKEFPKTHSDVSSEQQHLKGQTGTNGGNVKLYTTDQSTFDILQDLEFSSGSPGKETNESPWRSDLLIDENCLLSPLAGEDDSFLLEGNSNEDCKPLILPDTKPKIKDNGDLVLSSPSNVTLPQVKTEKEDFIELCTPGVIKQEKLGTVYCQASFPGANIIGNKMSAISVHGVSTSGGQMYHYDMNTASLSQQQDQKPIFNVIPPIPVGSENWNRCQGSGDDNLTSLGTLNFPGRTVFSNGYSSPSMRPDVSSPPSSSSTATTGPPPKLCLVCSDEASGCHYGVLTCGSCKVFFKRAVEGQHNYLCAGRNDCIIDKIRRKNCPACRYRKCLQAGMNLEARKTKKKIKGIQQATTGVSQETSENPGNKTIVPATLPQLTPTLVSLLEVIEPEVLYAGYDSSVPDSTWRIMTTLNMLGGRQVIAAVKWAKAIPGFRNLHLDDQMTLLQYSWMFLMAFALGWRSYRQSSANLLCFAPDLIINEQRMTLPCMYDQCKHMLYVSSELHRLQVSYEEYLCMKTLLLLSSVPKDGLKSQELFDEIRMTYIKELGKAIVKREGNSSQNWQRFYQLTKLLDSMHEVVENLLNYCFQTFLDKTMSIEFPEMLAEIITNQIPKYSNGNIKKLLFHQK
Description: Dexamethasone hereafter referred to as dex was purchased from SIGMA. […] Human glucocorticoid receptors were extracted from Sf9 cells infected with a recombinant baculovirus transfer vector containing the cloned hGR genes. […] The recombinant baculovi, uses expressing hGR were amplified and used to infect Sf9 cells. Infected cells were harvested 48 hrs post infection. […] The concentration of hGR in the extract was measured as specific ^3(H)-dex binding with the G25-assay as described in J. Steroid Biochem. Molec. […] The extract was aliquoted and stored at −70° C.
The filter binding assay: Dilution series of the test compounds and dex as reference were made from 10 mM (1 mM dex) stock solutions in DMSO. 10 μl of the dilutions was added in duplicates to the wells. The cell extracts were diluted 10 fold in EPMo +MTG buffer (1 mM EDTA, HPO4 20 mM (pH8), 6 mM MTG). […] 110 μl of the diluted ^3(H)-dex were added to the wells. The final concentration of hGR in the experiment was estimated to 1 nM. All preparations were made in ambient temperature (20-25° C.) on ice and with +4° C. temperated buffers. The plates were incubated over night at +4° C. (15-20hrs).
The incubation was stopped by filtration through GF/B filter on the Tomtec Cellharvester. The filtration on the Tomtec Cellharvester was programmed as follows: 1) Preparation before filtration with EP buffer (1 mM EDTA 20 mM HPO4 (pH8)) 2×(Wash/Asp 0.6 sec., Asp 0.5 sec.); 2) Prewet of GF/B filter with EP+PEI buffer (EP buffer, 0.3% Polyesthylenimine) (Asp 0.8 sec.). 3) Filtration/harvesting of the 96-well incubation plate 3×(Wash/Asp 0.6 sec., Asp 0.5 sec.). The GF/B filter was dried for at least 1 hr at 65° C. A MeltiLex scintillation wax was melted onto the filter with the Microsealer. The filter was placed in a samplebag, which was thereafter trimmed with scissors to fit the filter cassette. The cassette were placed in the Microbeta and measured for 1 min/position, returning ccpm (conrected counts per minute).
The Microbeta-instrument generates the mean cpm (counts per minute) value/minute and corrects for individual variations between the detectors thus generating corrected cpm values.

| Molecule | IC50 [1] [nM] | GR BINDING (% Inhibition @ 1.7 μM) [2] [%] | inhibition at 1.7 µM [2] [%] |
| --- | --- | --- | --- |
| (1-methoxy-6-(5-chloropent-1-yl)-6H-dibenzo(b,d)pyran-8-yl)methanesulfonamide [Example 75] | 1850 | 90.1 |  |
| (1-methoxy-6-(3-methoxyphenyl)-6H-dibenzo(b,d)pyran-8-yl)methanesulfonamide [Example 59] | 2110 | 94.7 |  |
| COc1cccc2c1-c1ccc(NS(C)(=O)=O)cc1C(c1ccc(Oc3ccc(Br)cc3)cc1)O2 (stereo not drawn) [Example 153] | > 10000 | 92.8 |  |
| (1-methoxy-6-(3,4-dichlorophenyl)-6H-dibenzo(b,d)pyran-8-yl)methanesulfonamide [Example 63] | 1200 | 98.5 |  |
| (1-ethynyl-6-phenyl-6H-dibenzo(b,d)pyran-8-yl)methanesulfonamide [Example 36] | 2240 | 95.0 |  |
| (1-methoxy-6-(5-chlorothien-2-yl)-6H-dibenzo(b,d)pyran-8-yl)methanesulfonamide [Example 58] | 524 | 94.6 |  |
| (1-methoxy-6-(3-cyanophenyl)-6H-dibenzo(b,d)pyran-8-yl)methanesulfonamide [Example 50] | 1050 | 93.7 |  |
| (1-methoxy-6-allyl-6H-dibenzo(b,d)pyran-8-yl)methanesulfonamide [Example 53] | 1420 | 92.9 |  |
| (1-methoxy-6-cyclohexyl-6H-dibenzo(b,d)pyran-8-yl)methanesulfonamide [Example 55] | 1000 | 93.4 |  |
| (1-(2-propynyl)oxy-6-phenyl-6H-dibenzo(b,d)pyran-8-yl)methanesulfonamide [Example 45] | 2160 | 91.2 |  |
| (1-methoxy-6-(4-methylphenyl)-6H-dibenzo(b,d)pyran-8-yl)methanesulfonamide [Example 76] | 670 | 89.7 |  |
| (1-methoxy-6-(3-chloroprop-2-en-1-yl)-6H-dibenzo(b,d)pyran-8-yl)methanesulfonamide [Example 73] | > 1000 | 88.3 |  |
| COc1cccc2c1-c1ccc(NS(C)(=O)=O)cc1C(c1cccc(Oc3ccccc3)c1)O2 (stereo not drawn) [Example 139, N-[1-methoxy-6-(3-phenoxyphenyl)-6H-benzo[c]chromen-8-yl]methanesulfonamide] | > 1000 |  | 90.6 |
| (1-methoxy-6-(3-carboethoxyphenyl)-6H-dibenzo(b,d)pyran-8-yl)methanesulfonamide [Example 51] | > 10000 | 94.0 |  |
| (1-methoxy-6-(4-carboethoxyphenyl)-6H-dibenzo(b,d)pyran-8-yl)methanesulfonamide [Example 52] | > 10000 | 92.2 |  |
| COCCCc1ccc(C2Oc3cccc(OC)c3-c3ccc(NS(C)(=O)=O)cc32)s1 (stereo not drawn) [Example 138, N-{1-methoxy-6-[5-(3-methoxypropyl)-2-thienyl]-6H-benzo[c]chromen-8-yl}methanesulfonamide] | 280 |  | 92.5 |
| (1-methoxy-6-(2-bromoprop-2-en-1-yl)-6H-dibenzo(b,d)pyran-8-yl)methanesulfonamide [Example 71] | 340 | 89.5 |  |
| COc1cccc2c1-c1ccc(NS(C)(=O)=O)c(Br)c1C(c1ccccc1)O2 (stereo not drawn) [Example 2] | > 10000 |  | 67.2 |

| Molecule | IC50 [1] [nM] | GR BINDING (% Inhibition @ 1.7 μM) [2] [%] | inhibition at 1.7 µM [2] [%] |
| --- | --- | --- | --- |
| CS(=O)(=O)Nc1ccc2c(c1)C(c1ccccc1)Oc1cccc(OC(F)F)c1-2 (stereo not drawn) [Example 25, N-(1-difluoromethoxy-6-phenyl-6H-dibenzo[b,d]pyran-8-yl)methanesulfonamide] | 370 |  | 92.7 |
| (1-methoxy-6-(4-chlorobutyl)-6H-dibenzo(b,d)pyran-8-yl)methanesulfonamide [Example 57] | 1090 | 94.9 |  |
| COc1cccc2c1-c1ccc(NS(C)(=O)=O)cc1C(c1cccc(C)c1)O2 (stereo not drawn) [Example 86, N-[1-methoxy-6-(3-methylphenyl)-6H-benzo[c]chromen-8-yl]methanesulfonamide] | 77 |  | 90.4 |
| (1-methoxy-6-(3-fluorophenyl)-6H-dibenzo(b,d)pyran-8-yl)methanesulfonamide [Example 77] | 480 | 90.4 |  |
| (1,2-methylenedioxy-6-phenyl-6H-dibenzo(b,d)pyran-8-yl)methanesulfonamide [Example 66] | 222 | 91.6 |  |
| (1-methoxy-4-methyl-6-phenyl-6H-dibenzo(b,d)pyran-8-yl)methanesulfonamide [Example 68] | > 10000 | 88.1 |  |
| (1-methoxy-6-(4-chlorophenyl)-6H-dibenzo(b,d)pyran-8-yl)methanesulfonamide [Example 61] | 3990 | 91.3 |  |
| C=CCOc1cccc(C2Oc3cccc(OC)c3-c3ccc(NS(C)(=O)=O)cc32)c1 (stereo not drawn) [Example 33, (1-methoxy-6-(3-allyloxy)phenyl-6H-dibenzo(b,d)pyran-8-yl)-methanesulfonamide] | 5490 |  | 87.5 |
| (1-cyano-6-phenyl-6H-dibenzo(b,d)pyran-8-yl)methanesulfonamide [Example 43] | 730 | 90.6 |  |
| COc1cccc2c1-c1ccc(NS(C)(=O)=O)cc1C(CCCCCCC#N)O2 (stereo not drawn) [Example 48] | > 10000 |  | 90.8 |
| (1-methoxy-2-hydroxy-6-phenyl-6H-dibenzo(b,d)pyran-8-yl)methanesulfonamide [Example 65] | 2840 | 94.9 |  |
| (1-methoxy-6-(5-bromothien-2-yl)-6H-dibenzo(b,d)pyran-8-yl)methanesulfonamide [Example 62] | 172 | 94.5 |  |
| COc1cccc2c1-c1ccc(NS(C)(=O)=O)cc1[C@H](c1ccccc1)O2 [Example 24, 6S-(1-methoxy-6-phenyl-6H-dibenzo(b,d)pyran-8-yl)methanesulfonamide] | 800 |  | 88.9 |
| COc1cccc2c1-c1ccc(NS(C)(=O)=O)cc1[C@@H](c1ccccc1)O2 [Example 23, 6R-(1-methoxy-6-phenyl-6H-dibenzo(b,d)pyran-8-yl)methanesulfonamide] |  | 36.9 |  |
| COc1cccc2c1-c1ccc(NS(=O)(=O)C(C)C)cc1C(c1ccccc1)O2 (stereo not drawn) [Example 8, (1-methoxy-6-phenyl-6H-dibenzo(b,d)pyran-8-yl)isopropanesulfonamide] |  | 87.9 |  |
| CCC(=O)Nc1ccc2c(c1)C(c1ccccc1)Oc1cccc(OC)c1-2 (stereo not drawn) [Example 13, (1-methoxy-6-phenyl-6H-dibenzo(b,d)pyran-8-yl)propionamide] |  | 85.4 |  |
| C=CCc1cccc2c1-c1ccc(NS(C)(=O)=O)cc1C(c1ccccc1)O2 (racemic) [Example 41] |  |  | 88.7 |
